Among the data in article PMC6429214, “Design, Synthesis and Biological Evaluation of Isoxazole-Based CK1 Inhibitors Modified with Chiral Pyrrolidine Scaffolds” (Molecules, 2019) are remaining activity, viability and EC50 values, retold here.

In one assay the target is T1, SGK1 (Homo sapiens, UniProt O00141).
T1 construct: purchased ProQinase
Description: 33PanQinase panel. Particulars: SGK1, 1 µM; read-out: Residual Activity (%). It counts as biochemical. The essentials:
(§1)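 Selectivity was profiled over 320 wild-type kinases at 1 µM inhibitor. Remaining activity relative to DMSO control was derived from 33P radiometric activity measurement.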

The target of the next assay is T2, BRSK1 (Homo sapiens, UniProt Q8TDC3).
T2 construct: purchased ProQinase
T2 sequence (Q8TDC3 whole entry): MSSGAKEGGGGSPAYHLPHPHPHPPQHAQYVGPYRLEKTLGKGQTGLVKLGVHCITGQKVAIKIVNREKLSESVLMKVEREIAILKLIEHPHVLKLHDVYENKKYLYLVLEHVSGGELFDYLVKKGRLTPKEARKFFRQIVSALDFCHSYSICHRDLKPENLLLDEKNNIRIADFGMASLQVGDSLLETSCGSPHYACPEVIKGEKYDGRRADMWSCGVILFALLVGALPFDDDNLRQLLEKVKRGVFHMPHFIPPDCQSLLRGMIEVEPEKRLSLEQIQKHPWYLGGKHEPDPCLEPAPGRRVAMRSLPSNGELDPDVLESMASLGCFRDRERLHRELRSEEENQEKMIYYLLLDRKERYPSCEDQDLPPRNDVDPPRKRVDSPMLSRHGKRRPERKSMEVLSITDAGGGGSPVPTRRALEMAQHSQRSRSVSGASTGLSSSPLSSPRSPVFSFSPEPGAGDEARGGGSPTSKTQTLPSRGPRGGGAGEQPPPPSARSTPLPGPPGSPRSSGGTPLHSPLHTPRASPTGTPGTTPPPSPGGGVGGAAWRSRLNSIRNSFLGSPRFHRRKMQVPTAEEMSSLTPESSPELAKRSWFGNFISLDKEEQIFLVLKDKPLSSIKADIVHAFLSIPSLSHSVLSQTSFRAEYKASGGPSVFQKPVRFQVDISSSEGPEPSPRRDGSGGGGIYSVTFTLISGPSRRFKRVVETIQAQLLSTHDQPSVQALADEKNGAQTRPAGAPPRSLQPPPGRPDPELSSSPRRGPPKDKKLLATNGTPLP
Description: 33PanQinase panel. It counts as biochemical. As to conditions: BRSK1, 1 µM; read-out: Residual Activity (%). The essentials: as §1

In a further assay the target is T3, CDC42BPA (Homo sapiens, UniProt Q5VT25).
T3 construct: purchased ProQinase
T3 sequence (Q5VT25 whole entry): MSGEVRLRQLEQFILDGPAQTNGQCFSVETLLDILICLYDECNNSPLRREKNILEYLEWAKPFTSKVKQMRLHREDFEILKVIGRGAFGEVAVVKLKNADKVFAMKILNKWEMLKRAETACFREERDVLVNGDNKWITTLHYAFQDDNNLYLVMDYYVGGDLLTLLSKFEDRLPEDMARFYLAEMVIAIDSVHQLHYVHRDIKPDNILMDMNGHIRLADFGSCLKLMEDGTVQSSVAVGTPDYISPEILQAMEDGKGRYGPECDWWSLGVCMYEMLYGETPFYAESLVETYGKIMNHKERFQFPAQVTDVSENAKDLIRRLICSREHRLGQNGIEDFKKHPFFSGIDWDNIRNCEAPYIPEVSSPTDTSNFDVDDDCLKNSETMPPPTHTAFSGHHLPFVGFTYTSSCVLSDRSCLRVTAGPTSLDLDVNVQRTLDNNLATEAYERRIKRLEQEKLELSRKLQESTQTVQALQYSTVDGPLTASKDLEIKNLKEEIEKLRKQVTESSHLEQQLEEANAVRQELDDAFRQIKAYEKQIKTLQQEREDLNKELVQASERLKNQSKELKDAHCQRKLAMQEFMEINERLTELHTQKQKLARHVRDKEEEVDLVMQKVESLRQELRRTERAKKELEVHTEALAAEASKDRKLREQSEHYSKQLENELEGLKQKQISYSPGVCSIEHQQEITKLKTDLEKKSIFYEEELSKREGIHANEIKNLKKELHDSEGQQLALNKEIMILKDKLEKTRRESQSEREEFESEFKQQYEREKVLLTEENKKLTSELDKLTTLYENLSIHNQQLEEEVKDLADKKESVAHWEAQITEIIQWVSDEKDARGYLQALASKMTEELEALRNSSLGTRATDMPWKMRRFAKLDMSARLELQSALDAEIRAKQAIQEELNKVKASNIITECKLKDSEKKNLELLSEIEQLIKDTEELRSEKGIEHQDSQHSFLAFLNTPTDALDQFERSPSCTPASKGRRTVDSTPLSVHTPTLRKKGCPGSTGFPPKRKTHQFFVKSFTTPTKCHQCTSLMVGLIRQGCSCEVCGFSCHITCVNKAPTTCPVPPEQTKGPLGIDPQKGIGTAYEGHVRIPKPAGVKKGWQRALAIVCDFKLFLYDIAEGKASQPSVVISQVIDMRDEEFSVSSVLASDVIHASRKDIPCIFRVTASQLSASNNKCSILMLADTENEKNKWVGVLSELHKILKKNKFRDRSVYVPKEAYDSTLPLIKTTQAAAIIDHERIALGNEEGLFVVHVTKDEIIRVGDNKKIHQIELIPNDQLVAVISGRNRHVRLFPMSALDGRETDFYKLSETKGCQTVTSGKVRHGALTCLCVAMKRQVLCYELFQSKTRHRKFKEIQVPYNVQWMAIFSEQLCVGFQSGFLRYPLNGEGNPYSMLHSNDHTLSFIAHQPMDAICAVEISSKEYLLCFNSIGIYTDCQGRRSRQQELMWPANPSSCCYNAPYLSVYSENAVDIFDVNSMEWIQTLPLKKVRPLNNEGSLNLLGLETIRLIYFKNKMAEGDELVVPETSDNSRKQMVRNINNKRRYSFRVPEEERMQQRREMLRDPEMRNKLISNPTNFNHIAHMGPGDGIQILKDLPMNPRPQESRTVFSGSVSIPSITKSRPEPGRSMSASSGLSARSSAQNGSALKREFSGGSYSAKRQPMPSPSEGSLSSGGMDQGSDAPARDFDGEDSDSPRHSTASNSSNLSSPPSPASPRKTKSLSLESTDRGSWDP
Description: 33PanQinase panel. It counts as biochemical. As to conditions: read-out: Residual Activity (%). The essentials: as §1

In another assay the target is T4, STK25 (Homo sapiens, UniProt O00506).
T4 construct: purchased ProQinase
T4 sequence (O00506 whole entry): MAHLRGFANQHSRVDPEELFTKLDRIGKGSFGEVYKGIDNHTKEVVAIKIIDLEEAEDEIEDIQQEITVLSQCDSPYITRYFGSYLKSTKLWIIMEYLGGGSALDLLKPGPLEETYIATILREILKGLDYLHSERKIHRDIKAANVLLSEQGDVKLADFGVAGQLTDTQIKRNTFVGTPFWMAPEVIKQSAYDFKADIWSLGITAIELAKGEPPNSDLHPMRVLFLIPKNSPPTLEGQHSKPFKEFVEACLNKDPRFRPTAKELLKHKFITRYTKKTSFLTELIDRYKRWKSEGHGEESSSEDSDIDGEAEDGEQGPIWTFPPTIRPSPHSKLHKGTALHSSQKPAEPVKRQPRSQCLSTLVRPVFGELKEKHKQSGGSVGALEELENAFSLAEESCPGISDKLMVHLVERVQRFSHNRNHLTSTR
Description: 33PanQinase panel. The format is biochemical. As to conditions: STK25, 1 µM; read-out: Residual Activity (%). The gist of the method: as §1

A further assay deals with T5, GSK3-alpha (Homo sapiens, UniProt P49840).
T5 construct: purchased ProQinase
T5 sequence (P49840 whole entry): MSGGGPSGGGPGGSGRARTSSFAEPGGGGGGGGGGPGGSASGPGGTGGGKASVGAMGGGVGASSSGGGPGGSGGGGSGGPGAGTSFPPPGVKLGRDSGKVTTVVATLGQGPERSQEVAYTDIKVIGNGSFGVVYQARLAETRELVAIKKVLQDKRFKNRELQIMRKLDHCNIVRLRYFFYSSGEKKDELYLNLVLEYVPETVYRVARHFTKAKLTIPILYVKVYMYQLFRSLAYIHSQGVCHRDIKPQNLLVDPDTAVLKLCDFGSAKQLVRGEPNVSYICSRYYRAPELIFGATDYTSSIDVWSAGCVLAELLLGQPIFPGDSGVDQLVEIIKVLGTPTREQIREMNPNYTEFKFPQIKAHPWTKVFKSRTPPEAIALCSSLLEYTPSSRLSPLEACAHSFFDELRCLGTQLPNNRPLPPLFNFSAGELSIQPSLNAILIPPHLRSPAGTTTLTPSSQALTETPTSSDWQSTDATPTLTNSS
Briefly: 33PanQinase panel. It counts as biochemical. Particulars: read-out: Residual Activity (%). The essentials:
as §1

The next assay addresses T6, ITK (Homo sapiens, UniProt Q08881).
T6 construct: purchased ProQinase
Description: 33PanQinase panel. The format is biochemical. As to conditions: read-out: Residual Activity (%). The gist of the method: as §1

For a further assay, the system named is MCF-7 cells. Briefly: MTT cell viability assay MCF-7. It counts as cell-based, human. Particulars: Homo sapiens, MCF7, 48 h, mean ± SD. As to the method:
The human colon adenocarcinoma cell line HT-29 was grown in McCoy’s 5A medium, whereas MCF7 cells were grown in DMEM medium. All media were supplemented with 10% fetal calf serum (FCS), 100 units/mL penicillin, 100 µg/mL streptomycin and 2 mM glutamine. All cells were grown at 37 °C in a humidified 5% carbon dioxide atmosphere.
In order to analyze the effects of selected inhibitors on the cell viability of HT-29 and MCF7 cells, MTT assays were performed. 1 × 10^4 cells/well were seeded in 96-well cell culture plates. After 24 h cells were treated with increasing concentrations of the indicated inhibitor compounds, with untreated and DMSO-treated cells as control. After an incubation period of 48 h, 10 µL of MTT solution (5 mg/mL in PBS) were added and cells were incubated for 4 h. MTT-containing medium was carefully removed and 100 µL acidic isopropanol (0.04 N HCl in isopropanol) per well were added. To dissolve formazan crystals, plates were shaken for 30 min on an orbital shaker in the dark. Finally, dissolved crystals were measured spectrophotometrically at 570 nm. All experiments were performed in triplicate with four technical replicates per assay. Results were normalized considering the mean optical density value of control wells as 100%. GraphPad Prism 6 software (San Diego, CA, USA) was used to calculate EC50 values.
(In general: Formazan colour is commonly taken as a measure of viable cells.)

T1 sequence (O00141 whole entry): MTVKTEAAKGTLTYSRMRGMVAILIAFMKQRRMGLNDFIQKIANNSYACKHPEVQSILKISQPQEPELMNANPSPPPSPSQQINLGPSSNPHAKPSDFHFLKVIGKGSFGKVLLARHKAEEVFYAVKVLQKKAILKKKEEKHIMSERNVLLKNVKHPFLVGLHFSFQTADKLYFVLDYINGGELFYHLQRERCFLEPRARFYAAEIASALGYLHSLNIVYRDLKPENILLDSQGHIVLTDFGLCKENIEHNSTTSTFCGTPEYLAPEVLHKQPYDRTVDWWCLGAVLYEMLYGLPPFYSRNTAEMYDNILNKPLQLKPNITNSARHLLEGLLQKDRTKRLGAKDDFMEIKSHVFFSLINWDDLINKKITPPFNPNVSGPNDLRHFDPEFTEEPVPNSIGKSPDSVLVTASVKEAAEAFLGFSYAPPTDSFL
T6 sequence (Q08881 whole entry): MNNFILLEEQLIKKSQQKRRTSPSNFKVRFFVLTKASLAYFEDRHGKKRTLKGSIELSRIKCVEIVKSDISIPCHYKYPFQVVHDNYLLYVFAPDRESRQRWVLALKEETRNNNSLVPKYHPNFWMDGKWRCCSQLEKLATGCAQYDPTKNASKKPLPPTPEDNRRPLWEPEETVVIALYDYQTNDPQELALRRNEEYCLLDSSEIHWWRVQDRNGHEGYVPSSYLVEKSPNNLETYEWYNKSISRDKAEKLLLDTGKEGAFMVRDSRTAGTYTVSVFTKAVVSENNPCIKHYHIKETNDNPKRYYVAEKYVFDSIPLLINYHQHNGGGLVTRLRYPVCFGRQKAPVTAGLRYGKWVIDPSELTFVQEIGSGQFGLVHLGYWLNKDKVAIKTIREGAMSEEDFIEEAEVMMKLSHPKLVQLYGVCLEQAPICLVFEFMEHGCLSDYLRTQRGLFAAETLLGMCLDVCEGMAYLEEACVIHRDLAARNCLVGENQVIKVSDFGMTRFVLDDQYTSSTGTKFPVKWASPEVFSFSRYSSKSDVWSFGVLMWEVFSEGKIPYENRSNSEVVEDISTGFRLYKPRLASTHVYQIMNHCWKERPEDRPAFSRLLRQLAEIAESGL

For `COc1ccc(-c2cc(C(=O)Nc3cc(-c4c(-c5ccc(F)cc5)noc4C(C)C)ccn3)n(CC3NCC(O)C3O)c2)cc1` (stereo not shown) [29d], the remaining activity at 1 µM at SGK1 turned out to be 102%; at BRSK1 it was 104%; on CDC42BPA, 100%; at STK25 it was 98%; on GSK3-alpha, 103%; on ITK, 114%. This molecule also displayed a viability at 5 µM in the assay with MCF-7 cells (5 µM) of 100 ± 16%. Also, the viability at 10 µM in the assay on MCF-7 cells (10 µM) amounted to 76 ± 19%. In the assay with MCF-7 cells (20 µM), the viability at 20 µM is 5.6 ± 1.5%. The same molecule had an EC50 in the assay with MCF-7 cells of 10 ± 2 µM.

The term viability denotes the share of living cells, or the viability signal relative to a control. High values mean better survival, low ones a greater loss of cells. In general, EC50 refers to the concentration at which the effect is half-maximal. A high value points to a less potent agent.
